The results in this text go back to patent US20260014125A1, “BICYCLIC-TYPE MAT2A INHIBITOR AND USE THEREOF” (HAIHE BIOPHARMA CO., LTD., priority 2022, published 2026).

One test has as its target MAT2A (Homo sapiens (Human), UniProt P31153). Briefly: Biochemical test: inhibition of MAT2A enzyme activity (phosphate detection, OD620). The following applies: MAT2A his-tag; 150 minutes enzymatic reaction. An excerpt: Experimental principle: MAT2A can catalyze the conversion of L-methionine and ATP into SAM, inorganic phosphate, and inorganic diphosphate. By adding a chromogenic reagent to the enzymatic reaction system, the content of inorganic phosphates in a sample can be quantitatively detected, thereby characterizing the enzymatic activity of MAT2A.
Experimental material: Tris (Life Science #0497); BSA (Sigma #); MAT2A his-tag (BPS #71401-1); 384 well plate (Corning #3765); L-methionine (Admas #1100469); ATP (Sigma #A7699); MgCl2 (Sigma #M8266); KCl (Sigma #7447-40-7); Brij35 (Sigma #B4184); EDTA (Sigma #E1644)
1. 1×Assaybuffer (buffer composition: Tris, KCl, MgCl2, BSA, Brij35, and EDTA; the solvent was ultrapure water) was prepared. MAT2A his-tag enzyme solution (containing 1.3 μL of MAT2A enzyme and 998.7 μL of 1×Assaybuffer per 1000 μL) and substrate mixed solution (containing 5 μL of ATP, 1.3 μL of L-methionine, and 993.7 μL of 1×Assaybuffer per 1000 μL) were prepared using 1×AssayBuffer.
2. Preparation of compound concentration gradient: The test compound was tested with a starting concentration of 10 μM, and 10 equimolar concentrations were set according to a 3-fold dilution. Specifically, firstly, the compound was diluted into 10 different concentrations of series solutions in a 384 well plate (with final detection concentrations of 10, 3.33, 1.11, 0.37, 0.123, 0.041, 0.0137, 0.0046, 0.0015, and 0.0005 μM), and then 250 nL of the above series solutions was transferred to the 384 well reaction plate using an ultrasonic pipetting system Echo550 for later use. 250 nL of 100% DMSO was added into a negative control well and a positive control well, respectively. Double well test.
3. 15 μL of MAT2A his-tag enzyme solution was added into both the compound well and the positive control well; and 15 μL of 1×Assaybuffer was added into the negative control well.
4. The 384 well plate reaction plate was centrifuged at 1000 rpm for 60 seconds, shaken, mixed well, and incubated for 15 minutes. 10 μL of substrate mixed solution was added into each experimental well of the 384 well reaction plate to initiate the reaction.
5. The 384 well reaction plate was centrifuged at 1000 rpm for 60 seconds, shaken, mixed well, and incubated for 150 minutes.
6. 50 μL of enzyme reaction termination solution Biomol was added into all experimental wells of the 384 well reaction plate to terminate the reaction, centrifuged at 1000 rpm for 60 seconds, and incubated for 15 minutes. OD620 was read and data was processed.
Data analysis: the inhibition rate (%) of the compound was calculated and fitted to obtain the IC50 of the tested compound. Calculation method for compound inhibition rate: Compound inhibition rate (%)=(OD620_max−OD620_stample)/(OD620_max−OD620_min)×100, wherein OD620_stample was the absorbance value of the sample well; OD620 min was the absorbance value of the positive control well, indicating the reading of the wells without enzyme activity; and OD620_max was the absorbance value of the negative control well, indicating the reading of the well without compound inhibition.

The next test concerns KP-4 cells. Briefly: Human pancreatic cancer KP-4 cell activity inhibition test (CellTiter-Glo). The following applies: 5 days. Type of test: cell-based. The method, then: Experimental principle: after co-incubating the MAT2A inhibitor to be tested with KP-4 cells for a period of time, a cell viability measurement method based on ATP content is used to characterize the effect of the tested compound on cell viability.
Experimental material: KP-4 cells (JCRB #JCRB0182); IMDM (Gibco 912440061); fetal bovine serum (EXCELL #FND500); penicillin-streptomycin (Gibco #15140-122); 0.25% Typsin-EDTA (Gibco #252(101-072); DMSO (Sigma #D2650); 96 well plate (Corning #3610); CellTiter-Glo (Promega #G7571)
1. KP-4 cells were cultured in IMDM culture medium containing 10% e fetal bovine serum and 1% penicillin-streptomycin at 37° C. and 5% CO2 in a cell culture incubator. Only cells in logarithmic growth phase were used for subsequent experiments.
2. The cells in logarithmic growth phase were inoculated into a 96 well plate, with a seeding quantity of 500 cells per well, and incubated overnight in a cell culture incubator at 37′C and 5% CO2.
3. The compound was dissolved with DMSO, diluted with culture medium to 10 different concentrations (approximately […]), 3333.3, 1111.1, 370, 123, 41.2, 13.7, 4.6, 1.5, and 0.5 nM) before adding it to the cell plate, and cultured at 37° C. and 5% CO2 for 5 days.
4. CellTiter-Glo reagent was added, and an enzyme-linked immunosorbent assay reader was used to detect cell viability.
Data analysis: the inhibition rate (%) of the compound was calculated and fitted to obtain the IC50 of the tested compound. Calculation method for compound inhibition rate: Compound inhibition rate (%)=(Signal_max−Signal_sample)/(Signal_max−Signal_min)×100, wherein Signal_sample was the sample well reading, indicating the cell activity of the compound inhibition well; Signal_min was the positive control well reading, indicating the background activity without cells; and Signal_max was the negative control well reading, indicating the cell activity of the well without compound inhibition.
Background: In ATP-based viability assays light output follows the ATP content of the culture.

pIC50: −log10 of the molar value.

Chain of MAT2A (P31153 whole entry): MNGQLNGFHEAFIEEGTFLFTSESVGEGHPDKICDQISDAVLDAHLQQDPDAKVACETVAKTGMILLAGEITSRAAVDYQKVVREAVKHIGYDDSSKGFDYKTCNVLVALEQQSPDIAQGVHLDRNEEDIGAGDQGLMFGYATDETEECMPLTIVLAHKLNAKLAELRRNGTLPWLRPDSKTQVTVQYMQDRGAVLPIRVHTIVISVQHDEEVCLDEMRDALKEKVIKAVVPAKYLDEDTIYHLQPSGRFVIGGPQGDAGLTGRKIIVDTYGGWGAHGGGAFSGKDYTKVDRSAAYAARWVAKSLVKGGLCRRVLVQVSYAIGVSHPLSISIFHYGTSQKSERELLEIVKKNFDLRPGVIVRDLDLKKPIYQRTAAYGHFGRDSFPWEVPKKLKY

The pIC50 is the IC50 on a negative log10 scale, so that one unit is a factor of ten. Take `CCOc1c(-c2ccc(Cl)cc2)c(=O)n(-c2ccc3nn(CCN(C)C)cc3n2)c2[nH]ncc12` [Compound 132]: the pIC50 was 7.78 against MAT2A and 6.80 in the test on KP-4 cells (Homo sapiens, 120 h).
Take `CCOc1c(-c2ccc(Cl)cc2)c(=O)n(-c2ccc3nn(C)cc3c2)c2nn(C)cc12` [Compound 134]: the pIC50 at MAT2A is 7.72; with KP-4 cells (Homo sapiens, 120 h) it was 8.21.
Take `CCOc1c(-c2ccc(Cl)cc2)c(=O)n(-c2ccc3ncn(C)c3c2)c2[nH]ncc12` [Compound 33]: the pIC50 against MAT2A was 7.83; with KP-4 cells (Homo sapiens, 120 h), 7.38.
With `CCNc1c(-c2ccc(OC)cc2)c(=O)n(-c2ccc(=O)n(C)c2)c2[nH]ncc12` [Compound 7], the pIC50 is 7.45 at MAT2A and below 5.00 in the test on KP-4 cells (Homo sapiens, 120 h).
For `Cn1cc2cc(-n3c(=O)c(-c4ccc(Cl)cc4)c(NCC(F)(F)F)c4cn[nH]c43)ccc2n1` [Compound 63], in that order: 7.74 and 8.62.
Take `Cn1cc2cc(-n3c(=O)c(-c4ccc(Cl)cc4)c(OCC4CC4)c4cn[nH]c43)ccc2n1` [Compound 50]: the pIC50 against MAT2A was 7.87; with KP-4 cells (Homo sapiens, 120 h), 7.67.
Consider `CCOc1c(-c2ccc(Cl)cc2)c(=O)n(-c2ccc3nn(C)nc3n2)c2[nH]ncc12` [Compound 137], for which the pIC50 against MAT2A is 7.77; in the test on KP-4 cells (Homo sapiens, 120 h), 6.37.
The like results for `Cn1cc2cc(-n3c(=O)c(-c4ccc(F)cc4)c(OCC(F)(F)F)c4cn[nH]c43)ccc2n1` [Compound 49] were, in that order, 7.75 and 7.24.
For `CCOc1c(-c2ccc(OC)cc2)c(=O)n(-c2ccc3nn(C)cc3c2)c2[nH]ncc12` [Compound 3], in that order: 7.71 and 7.19.
Turning to `CCOc1c(-c2ccc(OC)cc2)c(=O)n(-c2ccc3ncn(C)c3c2)c2[nH]ncc12` [Compound 15], the pIC50 is 7.82 against MAT2A and 6.80 in the test on KP-4 cells (Homo sapiens, 120 h).
`CCOc1c(-c2ccc(OC(F)F)cc2)c(=O)n(-c2ccc3nn(C)cc3n2)c2[nH]ncc12` [Compound 41]: the pIC50 on MAT2A is 7.90; with KP-4 cells (Homo sapiens, 120 h), 7.94.
As for `CCOc1c(-c2ccc(C(F)(F)F)nc2)c(=O)n(-c2ccc3nn(CC)cc3c2)c2[nH]ncc12` [Compound 102], the pIC50 on MAT2A was 7.69; in the test with KP-4 cells (Homo sapiens, 120 h), 7.39.
In the case of `Cn1cc2cc(-n3c(=O)c(-c4ccc(Cl)cc4)c(NCC4CC4)c4cn[nH]c43)ccc2n1` [Compound 123], the pIC50 on MAT2A is 7.93; in the test on KP-4 cells (Homo sapiens, 120 h), 8.43.
For `Cn1cc2cc(-n3c(=O)c(-c4ccc(F)cc4)c(OCC4CC4)c4cn[nH]c43)ccc2n1` [Compound 51], the pIC50 at MAT2A was 7.80; in the test with KP-4 cells (Homo sapiens, 120 h), 7.45.
For `CCOc1c(-c2cnc(C(F)(F)F)nc2)c(=O)n(-c2ccc3nn(C)cc3c2)c2[nH]ncc12` [Compound 124], the pIC50 at MAT2A was 7.74; in the test with KP-4 cells (Homo sapiens, 120 h), 6.63.
Consider `CCOc1c(-c2ccc(Cl)cc2)c(=O)n(-c2ccc3nnn(C)c3c2)c2[nH]ncc12` [Compound 128], for which the pIC50 was 8.07 on MAT2A and 8.92 in the test on KP-4 cells (Homo sapiens, 120 h).
On to `CCOc1c(-c2ccc(Cl)cc2)c(=O)n(C2=NC3C(C=C2)N=NN3C)c2[nH]ncc12` (centres unmarked) [Compound 141], for which the pIC50 is 7.78 against MAT2A and 6.84 in the test with KP-4 cells (Homo sapiens, 120 h).
With `CCNc1c(-c2ccc(OC)cc2)c(=O)n(-c2ccc3nn(C)cc3c2)c2[nH]ncc12` [Compound 2], the pIC50 was 7.76 at MAT2A and 7.15 in the test with KP-4 cells (Homo sapiens, 120 h).
As to `COc1ccc(-c2c(OCC(F)(F)F)c3cn[nH]c3n(-c3ccc4nn(C)cc4c3)c2=O)cc1` [Compound 12], the pIC50 at MAT2A was 7.92; in the test on KP-4 cells (Homo sapiens, 120 h), 7.93.
`COc1ccc(-c2c(NCC3CC3)c3cn[nH]c3n(-c3ccc4nn(C)cc4n3)c2=O)cc1` [Compound 5]: the pIC50 is 7.75 against MAT2A and 7.55 with KP-4 cells (Homo sapiens, 120 h).
Consider `CCOc1c(-c2ccc(OC(F)F)cc2)c(=O)n(-c2ccc3nncn3c2)c2[nH]ncc12` [Compound 26], for which the pIC50 is 7.87 at MAT2A and 6.18 in the test with KP-4 cells (Homo sapiens, 120 h).
For `COc1ccc(-c2cc3cn[nH]c3n(-c3ccc4nn(C)cc4c3)c2=O)cc1` [Compound 1], the pIC50 on MAT2A and with KP-4 cells was below 5.00 throughout.
